Assay results taken from patent US20240150287A1, “N-(BENZOYL)-PHENYLALANINE COMPOUND, PHARMACEUTICAL COMPOSITION CONTAINING SAME, AND USE THEREOF” (Hangzhou Apeloa Medicine Research Institute Co., Ltd., priority 2021, published 2024).

Target: recombinant human integrin α4β7 (binding to recombinant human MAdCAM-1) (Homo sapiens (Human), UniProt P13612+P26010)
Experiment: MAdCAM-1/α4β7 integrin binding inhibition activity evaluation test (α4β7-MAdCAM-1 ELISA)
Conditions: plate-coated recombinant human MAdCAM-1, recombinant human α4β7, 2 h room temperature, free form of compound
Protocol: EXAMPLE: MADCAM-1/α4β7 INTEGRIN BINDING INHIBITION ACTIVITY EVALUATION TEST (α4β7-MADCAM-1 ELISA)
Coat the 96-well microplate (Costar) with 50 μL of recombinant human MAdCAM-1 (R&D Systems) solution per well, and incubate overnight (12-18 hours) at 4° C. Wash three times with 150 μL of TBS buffer per well. Block plate with 150 μL per well with blocking buffer for 1 h at 37° C. Wash three times with 150 μL of TBS buffer per well. Dilute the recombinant human integrin α4β7 (R&D Systems) with TBS buffer containing 0.1% bovine serum albumin (BSA), then add to the 96 well plate with 50 μL per well. Add 1 μL of test compound or DMSO, cover, incubate at room temperature for 2 h, wash three times with 150 μL of TBS buffer per well. Dilute the anti-β7 antibody (R&D Systems) with 0.1% BSA TBS buffer, then add to the 96 well plate with 50 μL per well, cover, incubate at room temperature for 1 h, wash three times with 150 μL of TBS buffer per well. Add 50 μL of streptavidin-HRP (R&D Systems) per well, incubate at room temperature for 20 min, wash three times with 150 μL of TBS buffer per well. Add 50 μL of TMB substrate solution (Sigma) per well, incubate at room temperature for 5-30 min, and add 25 μL of stop solution per well to stop the reaction. Finally, measure absorbance at 450 nm with microplate reader (SpectraMax 340PC. Molecular Devices). Repeat the test to find the binding rate of cells at each concentration when the absorbance of the well without the test substance is used as 100%, and calculate the concentration IC50 that causes 50% binding inhibition and summarize the results in Table 1.
It should be stated that, as a test compound, the free form of the compound synthesized in the above examples is used.

Chain of recombinant human integrin α4β7 (binding to recombinant human MAdCAM-1) (P13612 34-970): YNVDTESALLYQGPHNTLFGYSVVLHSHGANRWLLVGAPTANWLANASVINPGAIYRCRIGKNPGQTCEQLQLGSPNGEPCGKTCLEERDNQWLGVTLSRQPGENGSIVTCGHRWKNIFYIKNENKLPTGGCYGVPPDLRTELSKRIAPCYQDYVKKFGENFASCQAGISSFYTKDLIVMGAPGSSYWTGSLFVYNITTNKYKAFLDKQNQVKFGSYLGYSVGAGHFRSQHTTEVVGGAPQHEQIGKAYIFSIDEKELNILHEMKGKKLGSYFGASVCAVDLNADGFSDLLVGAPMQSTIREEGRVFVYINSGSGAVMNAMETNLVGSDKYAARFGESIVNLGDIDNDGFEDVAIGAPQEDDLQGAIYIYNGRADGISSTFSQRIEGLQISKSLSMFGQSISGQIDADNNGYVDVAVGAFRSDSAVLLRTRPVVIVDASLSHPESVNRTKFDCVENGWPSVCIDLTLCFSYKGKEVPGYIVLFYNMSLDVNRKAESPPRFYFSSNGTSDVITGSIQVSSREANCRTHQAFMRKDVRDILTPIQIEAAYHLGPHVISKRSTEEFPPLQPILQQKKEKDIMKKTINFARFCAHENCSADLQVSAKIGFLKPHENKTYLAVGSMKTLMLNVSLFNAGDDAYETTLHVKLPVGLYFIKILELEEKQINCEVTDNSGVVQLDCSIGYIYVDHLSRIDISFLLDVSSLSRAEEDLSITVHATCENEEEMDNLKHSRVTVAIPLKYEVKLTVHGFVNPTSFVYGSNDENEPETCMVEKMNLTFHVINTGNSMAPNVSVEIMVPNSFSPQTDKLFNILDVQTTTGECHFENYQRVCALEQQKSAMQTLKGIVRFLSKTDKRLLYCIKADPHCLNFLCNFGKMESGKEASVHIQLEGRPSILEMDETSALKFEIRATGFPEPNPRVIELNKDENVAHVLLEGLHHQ
Chain of recombinant human integrin α4β7 (binding to recombinant human MAdCAM-1) (P26010 20-723): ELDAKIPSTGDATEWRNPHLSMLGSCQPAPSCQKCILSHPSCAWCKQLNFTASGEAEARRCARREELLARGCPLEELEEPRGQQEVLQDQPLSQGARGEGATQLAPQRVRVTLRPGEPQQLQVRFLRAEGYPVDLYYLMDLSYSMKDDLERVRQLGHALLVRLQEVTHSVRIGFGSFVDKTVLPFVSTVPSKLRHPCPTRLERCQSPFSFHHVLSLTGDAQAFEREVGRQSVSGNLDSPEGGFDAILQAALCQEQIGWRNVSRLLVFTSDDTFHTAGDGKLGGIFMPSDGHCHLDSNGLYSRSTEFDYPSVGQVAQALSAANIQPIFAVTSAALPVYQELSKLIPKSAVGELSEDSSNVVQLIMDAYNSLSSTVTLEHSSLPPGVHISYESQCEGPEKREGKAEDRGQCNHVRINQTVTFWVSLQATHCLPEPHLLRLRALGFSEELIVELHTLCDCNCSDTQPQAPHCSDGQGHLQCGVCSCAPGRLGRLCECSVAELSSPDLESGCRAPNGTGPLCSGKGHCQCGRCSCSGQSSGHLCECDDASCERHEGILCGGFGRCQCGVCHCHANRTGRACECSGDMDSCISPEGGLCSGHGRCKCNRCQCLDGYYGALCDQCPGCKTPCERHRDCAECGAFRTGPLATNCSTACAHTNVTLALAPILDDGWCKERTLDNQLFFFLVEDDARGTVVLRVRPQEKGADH

| IC50 [nM] | Structure (SMILES) |
| --- | --- |
| 0.45 | COc1cccc2c1n(-c1ccc(C[C@H](NC(=O)c3c(F)cccc3Cl)C(=O)O)cc1)c(=O)n2C [Example 35, (S)-2-(2-chloro-6-fluorobenzoylamino)-3-(4-(7-methoxy-3-methyl-2-oxo-2,3-dihydro-1H-benzo[d]imidazol-1-yl)phenyl)propionic acid] |
| 1.51 | CN(C)c1ccc2c(c1)n(-c1ccc(C[C@H](NC(=O)c3c(F)cccc3Cl)C(=O)O)cc1)c(=O)n2C [Example 36, (S)-2-(2-chloro-6-fluorobenzoylamino)-3-(4-(6-(dimethylamino)-3-methyl-2-oxo-2,3-dihydro-1H-benzo[d]imidazol-1-yl)phenyl)propionic acid] |
| 5.09 | CN(C)c1ccc2c(c1)n(C)c(=O)n2-c1ccc(C[C@H](NC(=O)c2c(F)cccc2Cl)C(=O)O)cc1 [Example 37, (S)-2-(2-chloro-6-fluorobenzoylamino)-3-(4-(5-(dimethylamino)-3-methyl-2-oxo-2,3-dihydro-1H-benzo[d]imidazol-1-yl)phenyl)propionic acid] |
| 27.9 | Cn1c(=O)n(-c2ccc(C[C@H](NC(=O)c3c(Cl)cc(Cl)cc3Cl)C(=O)O)cc2)c2c(Cl)cccc21 [Example 38, (S)-3-(4-(7-chloro-3-methyl-2-oxo-2,3-dihydro-1H-benzo[d]imidazol-1-yl)phenyl)-2-(2,4,6-trichlorobenzamido)propionic acid] |
| 3.65 | Cn1c(=O)n(-c2ccc(C[C@H](NC(=O)c3c(Cl)cc(N4CCOCC4)cc3Cl)C(=O)O)cc2)c2c(Cl)cccc21 [Example 39] |

The next lines start with the compound.

| Structure (SMILES) | IC50 [nM] |
| --- | --- |
| CN1CCC(n2c(=O)n(-c3ccc(C[C@H](NC(=O)c4c(F)cccc4Cl)C(=O)O)cc3)c3c(Cl)cccc32)CC1 [Example 29, (S)-3-(4-(7-chloro-3-(1-methylpiperidin-4-yl)-2-oxo-2,3-dihydro-1H-benzo[d]imidazol-1-yl)phenyl)-2-(2-chloro-6-fluorobenzoylamino)propionic acid] | 18.1 |
| Cn1c(=O)n(-c2ccc(C[C@H](NC(=O)c3c(F)cccc3Cl)C(=O)O)cc2)c2c(F)cc(F)cc21 [Example 31, (S)-2-(2-chloro-6-fluorobenzoylamino)-3-(4-(5,7-difluoro-3-methyl-2-oxo-2,3-dihydro-H-benzo[d]imidazol-1-yl)phenyl)propionic acid] | 5.34 |
| Cn1c(=O)n(-c2ccc(C[C@H](NC(=O)c3c(F)cccc3Cl)C(=O)O)cc2)c2cc(Cl)c(Cl)cc21 [Example 32, (S)-2-(2-chloro-6-fluorobenzoylamino)-3-(4-(5,6-dichloro-3-methyl-2-oxo-2,3-dihydro-H-benzo[d]imidazol-1-yl)phenyl)propionic acid] | 4.19 |
| Cn1c(=O)n(-c2ccc(C[C@H](NC(=O)c3c(F)cccc3Cl)C(=O)O)cc2)c2c(F)c(F)ccc21 [Example 33, (S)-2-(2-chloro-6-fluorobenzoylamino)-3-(4-(6,7-difluoro-3-methyl-2-exo-2,3-dihydro-1H-benzo[d]imidazol-1-yl)phenyl)propionic acid] | 2.7 |
| Cn1c(=O)n(-c2ccc(C[C@H](NC(=O)c3c(F)cccc3Cl)C(=O)O)cc2)c2ccc(F)c(F)c21 [Example 34, (S)-2-(2-chloro-6-fluorobenzoylamino)-3-(4-(4,5-difluoro-3-methyl-2-oxo-2,3-dihydro-1H-benzo[d]imidazol-1-yl)phenyl)propionic acid] | 10.5 |
